From patent US8309596B2, “Kallikrein 7 modulators” (Novartis AG, priority 2007, dated 2012)
Marks after values point to notes of the source that are not given here.

Legend:
Kallikrein-7 = Kallikrein-7 (Homo sapiens, UniProt P49862); experiment: Kallikrein-7 inhibition, fluorescence-quenched substrate, determination of IC50 values; assay type: biochemical; details: pH 5.6, 1 hour preincubation, 0.2 nM protease, 2 μM substrate, room temperature
Experimental: The fluorescence-quenched substrate Ac-Glu-Asp(EDANS)-Lys-Pro-Ile-Leu-Phe^Arg-Leu-Gly-Lys(DABCYL)-Glu-NH2 (where ^ indicates the scissile bond, identified by MS analysis) is purchased from Biosyntan (Berlin, Germany) and kept as a 5 mM stock solution in DMSO at −20° C. All other chemicals are of analytical grade.
Enzymatic reactions are conducted in 50 mM sodium citrate buffer at pH 5.6 containing 150 mM NaCl and 0.05% (w/v) CHAPS.
All protein and peptide containing solutions are handled in siliconized tubes (Life Systems Design, Merenschwand, Switzerland). […]
For fluorescence intensity (FI) measurements an Ultra Evolution reader (TECAN, Maennedorf, Switzerland) is used. The instrument is equipped with a combination of a 350 nm (20 nm bandwidth) and a 500 nm (25 nm bandwidth) bandpath filter for fluorescence excitation and emission acquisition, respectively. […]
For the determination of IC50 values the assay is performed at room temperature in 384-well plates. […] The protease concentration in final assay solution is 0.2 nM (according to the enzyme concentrations determined by the Bradford method). […] The effect of the compound on the enzymatic activity is obtained from the linear progress curves and determined from two readings, the first one taken directly after the addition of substrate and the second one after 1 hour. […]

swine = experiment: Anti-inflammatory activity in swine model of allergic contact dermatitis (ACD), DNFB; assay type: in vivo
Experimental: Eight days before the elicitation of the ACD, […] of 10% 2,4-dinitrofluorobenzene (DNFB, dissolved in DMSO/acetone/olive oil [1/5/3, v/v/v]) are applied epicutaneously in divided volumes onto the basis of both ears and onto both groins (100 μl/site) for sensitization. The challenge reactions are elicited with 15 μl of DNFB (1.0%) on contralateral test sites (each 7 cm^2 in size) of the shaved dorsolateral back. For treatment, the compound of example 11 (=Test compound 2) and the placebo (solvent only) are applied contralaterally to 2 test sites in each animal 0.5 and 6 hours after the challenge. The test sites are clinically examined 24 hours after the challenge when inflammation peaks. The changes are scored on a scale from 0 to 4 (Table XY), allowing a combined maximal score of 12 per designated site. Skin reddening is measured reflectometrically using a* values (see Table 3)

hairless SKH1 mice = experiment: Test on recovery of skin barrier disruption in mice (TEWL); assay type: in vivo; details: 10 mM
Experimental: Method: Skin barrier disruption is achieved in groups of hairless SKH1 mice with repeated stripping of the skin with S-Sqame® skin sampling disks. The procedure is completed when transepidermal water loss (TEWL) achieved ≧[…]. TEWL is assessed with a Tewameter TM210 (Courage Khazaka, Cologne, Del.). Immediately after barrier disruption 30 μl of the compound of example 37(=Test compound 1) is applied at 10 mM concentration. Controls animals are treated similarly with the solvent (EtOH/propylene glycol, 3/7 (v/v)) alone. TEWL is measured before, immediately after, and at 3 hrs after barrier disruption. In each animal, the percentage recovery is calculated using the formula: (1−[TEWL at 3 hrs−base line TEWL]/[TEWL immediately after stripping−base line TEWL])×100%.

Crl:NMRI mice = experiment: Anti-inflammatory activity in murine model of irritant contact dermatitis (ICD), TPA-induced; assay type: in vivo; details: for % Inhibition inflammatory swelling [Mean ± SEM values]: 10 μl topically 30 minutes prior to TPA challenge, auricular weight 6 hours after challenge, n 24
Experimental: Method: Crl:NMRI mice are challenged with 10 μl 0.005% phorbol 12-myristat-13-acetate (TPA) on the inner surface of the right ear. The unchallenged left ears serve as normal controls and dermatitis is evaluated from the difference in auricular weight (taken as a measure of inflammatory swelling) 6 hours after the challenge. The animals are treated topically with 10 μl of the test compound 1 or the solvent 30 minutes prior to the challenge. The efficacy of the treatment is calculated as the percentage inhibition of inflammatory auricular swelling relative to animals treated with the vehicle alone.

Sequence of Kallikrein-7 (P49862 30-253): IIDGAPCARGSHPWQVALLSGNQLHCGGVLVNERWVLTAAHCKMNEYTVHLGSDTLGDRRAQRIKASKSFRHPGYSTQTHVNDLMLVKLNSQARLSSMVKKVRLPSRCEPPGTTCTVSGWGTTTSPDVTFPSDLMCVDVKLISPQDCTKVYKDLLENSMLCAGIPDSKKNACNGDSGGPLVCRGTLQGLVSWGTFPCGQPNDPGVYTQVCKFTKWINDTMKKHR

O=C(NCc1cccnc1)[C@@H]1[C@H]2C[C@H]2CN1C(=O)NCc1cccc2ccc(Cl)cc12 [Example 36, (1S,2S,5R)-3-aza-bicyclo[3.1.0]hexane-2,3-dicarboxylic acid 3-[(7-chloro-naphthalen-1-ylmethyl)-amide] 2-[(pyridin-3-ylmethyl)-amide]]
IC50 (Kallikrein-7): 3 nM

C#Cc1ccc2cccc(CNC(=O)N3CCC[C@H]3C(=O)NCc3cccnc3)c2c1 [Example 11, (S)-Pyrrolidine-1,2-dicarboxylic acid 1-[(7-ethynyl-naphthalen-1-ylmethyl)-amide] 2-[(pyridin-3-ylmethyl)-amide]]
A* value (Mean, SD, n: 8), skin reddening measured reflectometrically (swine; 1% solution applied 0.5 and 6 hours after challenge, 24 hours after challenge): 7.7 (1.6) | Clinical score (Mean, SD, n: 8) (swine; 1% solution applied 0.5 and 6 hours after challenge, examined 24 hours after challenge, maximal score 12): 4.1 (1.3) | Inhibition vs placebo-treated sites, Clinical score (swine; 1% solution, Mean, SD): 42.4 (11.1) | inhibition of clinical inflammatory changes (swine; 1% solution, p<0.01): 42%

COc1ccc(CCNC(=O)[C@@H]2[C@H]3C[C@H]3CN2C(=O)NCc2cccc3ccc(Cl)cc23)cc1 [Example 37, (1S,2S,5R)-3-aza-bicycic[3.1.0]hexane-2,3-dicarboxylic acid 3-[(7-chloro-naphthalen-1-ylmethyl)-amide] 2-{[2-(4-methoxy-phenyl)-ethyl]-amide}]
% Recovery in barrier disruption Mean (SD values) (hairless SKH1 mice; 30 μl applied immediately after barrier disruption, TEWL at 3 hrs, n: 8 or 12 animals per group): 76 (3.3)*** % | acceleration of barrier repair compared to repair in mice treated with the solvent alone (hairless SKH1 mice; single application, p<0.001): 65-76% | % Inhibition inflammatory swelling [Mean ± SEM values] (Crl:NMRI mice; 10 mM): 41 ± 5.3***^24% | inhibition of inflammatory swelling (Crl:NMRI mice; 20 mM concentrations as printed in text): 54-73% | % Inhibition inflammatory swelling [Mean ± SEM values] (Crl:NMRI mice; 30 mM): 73 ± 7.0***^24%
